# What was measured:
# Test in all cases: relative viability (nuclei count vs DMSO), 5 days (fraction); higher = more cells survive
# [1] = system: 201T
# Method in brief: (§1)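 Medians of duplicate plates are given as relative viability. That measure is the nuclei count in treated wells divided by the count in vehicle wells. Counts were taken on 4× images of lung cancer cell lines in 1536-well plates, 5 days after pin-tool dosing the day after seeding with one drug alone or a fixed anchor-drug dose plus five library-drug doses (not always all listed) in √10 steps.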
# [2] = system: COR-L 105
# Method in brief: as §1
# [3] = system: ChaGo-K-1
# Method in brief: as §1
# [4] = system: EPLC-272H
# Method in brief: as §1
# [5] = system: H3255
# Method in brief: as §1
# [6] = system: HCC-78
# Method in brief: as §1
# [7] = system: HCC-827
# Method in brief: as §1
# [8] = system: LC-2-ad
# Method in brief: as §1
# [9] = system: LCLC-97TM1
# Method in brief: as §1
# [10] = system: NCI-H1666
# Method in brief: as §1
# [11] = system: NCI-H1915
# Method in brief: as §1
# [12] = system: NCI-H2087; settings: first compound 0.04 µM
# Method in brief: as §1
smiles,measurement,setting,value
Cc1sc2c(c1C)C(c1ccc(Cl)cc1)=N[C@@H](CC(=O)OC(C)(C)C)c1nnc(C)n1-2 [JQ1] + Nc1nc2[nH]cc(CCc3ccc(C(=O)N[C@@H](CCC(=O)O)C(=O)O)cc3)c2c(=O)[nH]1 [Pemetrexed] (partner 0.2 µM),relative viability,[1]; first compound 0.04 µM,0.325
same,relative viability,[1]; first compound 0.4 µM,0.293
same,relative viability,[1]; first compound 1.265 µM,0.274
same,relative viability,[1]; first compound 4 µM,0.23
same,relative viability,[2]; first compound 0.04 µM,0.818
same,relative viability,[2]; first compound 0.1265 µM,0.566
same,relative viability,[2]; first compound 0.4 µM,0.742
same,relative viability,[2]; first compound 1.265 µM,0.385
same,relative viability,[2]; first compound 4 µM,0.413
same,relative viability,[3]; first compound 0.04 µM,0.25
same,relative viability,[3]; first compound 0.1265 µM,0.256
same,relative viability,[3]; first compound 0.4 µM,0.245
same,relative viability,[3]; first compound 1.265 µM,0.252
same,relative viability,[3]; first compound 4 µM,0.243
same,relative viability,[4]; first compound 0.04 µM,0.309
same,relative viability,[4]; first compound 0.1265 µM,0.336
same,relative viability,[4]; first compound 0.4 µM,0.29
same,relative viability,[4]; first compound 1.265 µM,0.298
same,relative viability,[4]; first compound 4 µM,0.317
same,relative viability,[5]; first compound 0.04 µM,0.569
same,relative viability,[5]; first compound 0.1265 µM,0.515
same,relative viability,[5]; first compound 0.4 µM,0.453
same,relative viability,[5]; first compound 1.265 µM,0.364
same,relative viability,[5]; first compound 4 µM,0.3
same,relative viability,[6]; first compound 0.04 µM,0.87
same,relative viability,[6]; first compound 0.1265 µM,0.957
same,relative viability,[6]; first compound 0.4 µM,0.977
same,relative viability,[6]; first compound 1.265 µM,0.91
same,relative viability,[6]; first compound 4 µM,0.866
same,relative viability,[7]; first compound 0.04 µM,0.262
same,relative viability,[7]; first compound 0.1265 µM,0.255
same,relative viability,[7]; first compound 1.265 µM,0.211
same,relative viability,[7]; first compound 4 µM,0.247
same,relative viability,[8]; first compound 0.04 µM,0.268
same,relative viability,[8]; first compound 0.1265 µM,0.258
same,relative viability,[8]; first compound 0.4 µM,0.244
same,relative viability,[8]; first compound 1.265 µM,0.256
same,relative viability,[8]; first compound 4 µM,0.209
same,relative viability,[9]; first compound 0.04 µM,0.168
same,relative viability,[9]; first compound 0.1265 µM,0.199
same,relative viability,[9]; first compound 0.4 µM,0.172
same,relative viability,[9]; first compound 1.265 µM,0.141
same,relative viability,[9]; first compound 4 µM,0.0882
same,relative viability,[10]; first compound 0.04 µM,0.801
same,relative viability,[10]; first compound 0.1265 µM,0.786
same,relative viability,[10]; first compound 0.4 µM,0.697
same,relative viability,[10]; first compound 1.265 µM,0.659
same,relative viability,[10]; first compound 4 µM,0.602
same,relative viability,[11]; first compound 0.04 µM,0.46
same,relative viability,[11]; first compound 0.4 µM,0.323
same,relative viability,[11]; first compound 1.265 µM,0.295
same,relative viability,[11]; first compound 4 µM,0.167
same,relative viability,[12],0.621

# — the supplement of paper PMC10307832
